One may read the IC50 as the point on the concentration scale where inhibition reaches its midpoint. High values mean lower potency, low ones higher potency.

For one data set, the system named is mast cell degranulation. The experiment in a line: Mouse passive cutaneous anaphylaxis model. It counts as in vivo. The note with it: increasing doses, single oral dose. As for the experimental part:
(FIG. 4) Mice were sensitized with an intradermal injection of monoclonal anti-DNP-IgE in the back. […] After one hour, animals were challenged with an intravenous injection of DNP-BSA and Evans Blue dye. Mast cell degranulation leads to vascular permeability and the distribution of the dye into the skin of the back. The area of extravasation after 1 hour is measured.

The test system of another data set is normal human B cells. The experiment in a line: B cell activation after brief exposure and washout (CD69). It counts as cell-based. As to conditions: 1 hour exposure, washed three times, IgM F(ab')2 stimulation 18 hours. How it is done: B cells were purified from blood from healthy donors by negative selecting using the RosetteSep Human B cell enrichment cocktail. […] After incubation for 1 hour at 37° C., cells were washed three times using an 8-fold dilution in growth media for each wash. Cells were then stimulated with 10 ug/ml of IgM F(ab′)2 for 18 hours at 37° C. Cells were then stained with anti-CD69-PE antibody and analyzed by flow cytometry using standard conditions.

A further data set relates to Ramos. The experiment in a line: Sensitivity of Ramos cell line. It is filed as cell-based. An excerpt:
To identify biomarkers that correlate with response to Compound 1, phosphorylation events in the BCR signal transduction pathway were investigated.

Another data set deals with MDA-MB-453 xenograft. The experiment in a line: MDA-MB-453 breast cancer xenograft. It counts as in vivo, nude mice. The note with it: 50 mg/kg or 5 mg/kg daily, tumor volume (FIG. 8). An excerpt:
An MDA-MB-453 breast cancer xenograft was implanted under the skin of a nude mouse. […] The volume of the tumor xenograft was monitored daily.

For data set [1], the system named is Btk expressing B cell lymphoma cell lines. Description: Sensitivity of a panel of nine Btk expressing B cell lymphoma cell lines. It is filed as cell-based. The note with it: two cell lines with low pERK levels. How it is done:
After 72 hours, cell number was measured using Alamar Blue using manufacturer's protocol. A dilution series of untreated cells was run in parallel to verify that the Alamar Blue assay reliably reflected cell number and that growth conditions, were not limiting. […] GI50 values were confirmed in two or more separate experiments for each cell line.
A panel of nine Btk expressing B cell lymphoma cell lines was screened for basal pERK levels.

Data set [2] can be described thus: Plasma concentrations in orally dosed rats. It is filed as in vivo, Male jugular vein cannulated rats. As to conditions: rat, 8 mg/kg single dose by oral gavage, in combination. As for the experimental part:
Male jugular vein cannulated rats were administered a single dose of all test compounds at 8 mg/kg each, in combination by oral gavage. Dose volumes were adjusted based on body weight data collected immediately prior to dosing. Blood samples were collected at 0.0833 (5 minutes), 0.333 (20 minutes), 1, 3, 6, 9, and 24 hours post-dosing from orally dosed rats. The samples were collected into plasma separator Microtainer tubes with anticoagulant (lithium heparin). Plasma samples were prepared by centrifugation (5 min at 5000×g), and at least 100 μL were transferred to storage tubes and stored frozen at −80° C. Plasma samples were thawed and 75 uL aliquots were transferred to centrifuge tubes to which 10 μL aliquots of internal standard solution (1 μg/mL) were added. The samples were not diluted with blank plasma prior to further processing. Soluble proteins were precipitated by the addition of 200 μL of acetonitrile, followed by centrifugation (20 min at 16,000×g). The samples were evaporated to dryness and reconstituted in 200 μL of water containing 0.2% formic acid and 10% methanol. All samples were loaded onto an autosampler maintained at 6° C. and evaluated for concentrations of test compounds using LC-MS/MS.

For a further data set, the system named is proteinuria. The experiment in a line: Mouse MRL/lpr model of lupus. It counts as in vivo, MRL/lpr mice. The note with it: 3.125 mg/kg, 12.5 mg/kg, and 50 mg/kg orally once per day.
In data set [3] the target is Tec family kinases, including Btk, and Src family kinases. The experiment in a line: In vitro profiling against a panel of greater than 100 kinases. It counts as biochemical. An excerpt:
By way of example only and in some embodiments, the observed potency, selectivity, and cell permeability of compounds such as Compound 2 are appropriate to incorporate these molecules into a Kinase-targeted, activity based probe that allows direct visualization of Kinase activity in intact cells. […] Without limiting the scope of the compositions and methods described herein, it is postulated that the structural basis for the selectivity is covalent modification of a non-catalytic cysteine residue (Cys 481 in Btk) that is conserved in the ATP binding pocket of the Tec family and several other kinases.

The next data set deals with BTK (Homo sapiens (Human), UniProt Q06187). Description: HotSpot kinase assay, BTK. It is filed as biochemical. The note with it: Table 2; 1 uM ATP, one hour incubation with inhibitor.
The next data set has as its target HER4 (Homo sapiens (Human), UniProt Q15303). The experiment in a line: HotSpot kinase assay, HER4. It counts as biochemical. The note with it: Table 1, first of two rows printed HER4; 1 uM ATP.

HER4, sequence (Q15303 other isoform, or with tags, fused parts or gaps): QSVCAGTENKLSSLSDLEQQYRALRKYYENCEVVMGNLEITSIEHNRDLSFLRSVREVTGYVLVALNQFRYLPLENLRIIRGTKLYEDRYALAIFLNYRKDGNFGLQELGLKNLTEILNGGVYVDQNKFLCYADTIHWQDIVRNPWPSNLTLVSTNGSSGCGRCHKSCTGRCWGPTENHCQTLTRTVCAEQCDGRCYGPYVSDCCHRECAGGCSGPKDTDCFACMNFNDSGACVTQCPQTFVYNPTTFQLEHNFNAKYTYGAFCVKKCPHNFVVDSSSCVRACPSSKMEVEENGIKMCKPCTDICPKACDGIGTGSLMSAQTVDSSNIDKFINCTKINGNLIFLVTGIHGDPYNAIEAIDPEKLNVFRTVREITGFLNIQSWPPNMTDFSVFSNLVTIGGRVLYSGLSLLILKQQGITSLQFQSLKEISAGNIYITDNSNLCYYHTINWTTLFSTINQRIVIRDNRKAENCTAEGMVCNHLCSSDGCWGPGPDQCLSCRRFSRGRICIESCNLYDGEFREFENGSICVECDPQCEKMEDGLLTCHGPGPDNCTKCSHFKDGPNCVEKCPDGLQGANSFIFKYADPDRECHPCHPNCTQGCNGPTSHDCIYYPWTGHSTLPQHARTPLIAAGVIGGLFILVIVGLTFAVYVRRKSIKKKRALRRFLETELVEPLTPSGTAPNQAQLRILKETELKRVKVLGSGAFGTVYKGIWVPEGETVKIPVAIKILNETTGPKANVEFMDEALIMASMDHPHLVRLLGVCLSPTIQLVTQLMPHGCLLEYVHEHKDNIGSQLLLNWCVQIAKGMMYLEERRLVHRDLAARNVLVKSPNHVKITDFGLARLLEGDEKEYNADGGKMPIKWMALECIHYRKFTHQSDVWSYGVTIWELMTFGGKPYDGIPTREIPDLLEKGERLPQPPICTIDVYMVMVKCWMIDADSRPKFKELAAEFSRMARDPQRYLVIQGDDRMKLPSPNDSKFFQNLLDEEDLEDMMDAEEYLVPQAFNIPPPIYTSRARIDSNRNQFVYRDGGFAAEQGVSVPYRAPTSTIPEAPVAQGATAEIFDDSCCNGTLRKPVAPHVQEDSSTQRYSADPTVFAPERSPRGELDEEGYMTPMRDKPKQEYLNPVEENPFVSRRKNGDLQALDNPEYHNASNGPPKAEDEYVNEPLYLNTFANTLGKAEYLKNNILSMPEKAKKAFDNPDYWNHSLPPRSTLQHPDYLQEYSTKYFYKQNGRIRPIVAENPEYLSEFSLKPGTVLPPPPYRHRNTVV
BTK, sequence (Q06187 whole entry): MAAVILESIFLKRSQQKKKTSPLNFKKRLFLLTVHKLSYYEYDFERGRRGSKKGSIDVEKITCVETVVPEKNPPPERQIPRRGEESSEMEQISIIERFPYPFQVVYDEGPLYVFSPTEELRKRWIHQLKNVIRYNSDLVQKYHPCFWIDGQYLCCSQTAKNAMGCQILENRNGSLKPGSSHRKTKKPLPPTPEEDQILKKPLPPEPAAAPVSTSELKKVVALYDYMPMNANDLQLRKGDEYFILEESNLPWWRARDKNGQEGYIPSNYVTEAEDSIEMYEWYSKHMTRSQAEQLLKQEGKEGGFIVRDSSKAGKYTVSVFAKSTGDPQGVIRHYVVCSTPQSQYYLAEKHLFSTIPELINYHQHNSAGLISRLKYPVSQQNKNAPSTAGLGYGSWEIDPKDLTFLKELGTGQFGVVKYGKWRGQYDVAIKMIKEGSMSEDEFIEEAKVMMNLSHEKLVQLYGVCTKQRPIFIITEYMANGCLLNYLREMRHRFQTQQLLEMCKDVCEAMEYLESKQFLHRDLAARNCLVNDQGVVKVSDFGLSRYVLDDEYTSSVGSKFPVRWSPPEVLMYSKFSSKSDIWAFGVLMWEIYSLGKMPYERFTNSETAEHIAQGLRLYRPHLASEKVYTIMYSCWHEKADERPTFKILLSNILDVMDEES

Take `C=CC(=O)N1CCC[C@@H](n2nc(-c3ccc(Oc4ccccc4)cc3)c3c(N)ncnc32)C1` [Compound 1]: in the data set on mast cell degranulation, the “amount of Evans Blue release” value is listed as “significantly decrease the amount of Evans Blue release”. For the same molecule, in the data set on normal human B cells, the “inhibition of B cell activation” value is on record as “sufficient to inhibit B cell activation”. Also, the sensitivity to compound entry (in the data set on Ramos; in data set [1]) was “resistant” each time. Also, in the data set on MDA-MB-453 xenograft, the efficacy in xenograft result is “efficacy”. Besides, the in vivo half-life result in [2] is “short half-life”. In addition, the proteinuria result in the data set with proteinuria was “significantly reduced proteinuria”.

On to `CN(C)C/C=C/C(=O)N1CCC[C@@H](n2nc(-c3ccc(Oc4ccccc4)cc3)c3c(N)ncnc32)C1` [Compound 2], for which the kinase panel profile entry in data set [3] was “highly potent and selective inhibitor of Tec family kinases”.

For `CN(C/C=C/C(=O)N1CCCC(n2nc(-c3ccc(Oc4ccccc4)cc3)c3c(N)ncnc32)C1)CCO` (centres unmarked) [Compound 3], the IC50 at BTK came to 21 nM.

Molecule `C=CC(=O)N[C@H]1CC[C@@H](n2nc(-c3ccc(Oc4ccccc4)cc3)c3c(N)ncnc32)CC1` [Compound 9] gave a half-maximal inhibitory concentration (IC50) against HER4 of 1540 nM.

For `CN(C)C/C=C/C(=O)N1CCC[C@H]1Cn1nc(-c2ccc(Oc3ccccc3)cc2)c2c(N)ncnc21` [Compound 12, (E)-1-((S)-2-((4-amino-3-(4-phenoxyphenyl)-1H-pyrazolo[3,4-d]pyrimidin-1-yl)methyl)pyrrolidin-1-yl)-4-(dimethylamino)but-2-en-1-one], the in vivo half-life entry in data set [2] is “short half-life”.
